# Laboratory results taken from US20150291625A1 (PFIZER INC., priority 2012, published 2015).
# Where “and” joins values, the source holds several entries; their conditions need not be identical. Equal entries are not always repeated. Structures can show the parent of a compound that is named as a salt.
# Key:
# D1 [1] = biological target: T1, D1 (Homo sapiens, UniProt P21728); assay: D1 cAMP HTRF assay (HEK293T/hD1#1 stable cell line); format: cell-based; parameters: expressed in transfected cells
# T1 sequence (P21728 whole entry): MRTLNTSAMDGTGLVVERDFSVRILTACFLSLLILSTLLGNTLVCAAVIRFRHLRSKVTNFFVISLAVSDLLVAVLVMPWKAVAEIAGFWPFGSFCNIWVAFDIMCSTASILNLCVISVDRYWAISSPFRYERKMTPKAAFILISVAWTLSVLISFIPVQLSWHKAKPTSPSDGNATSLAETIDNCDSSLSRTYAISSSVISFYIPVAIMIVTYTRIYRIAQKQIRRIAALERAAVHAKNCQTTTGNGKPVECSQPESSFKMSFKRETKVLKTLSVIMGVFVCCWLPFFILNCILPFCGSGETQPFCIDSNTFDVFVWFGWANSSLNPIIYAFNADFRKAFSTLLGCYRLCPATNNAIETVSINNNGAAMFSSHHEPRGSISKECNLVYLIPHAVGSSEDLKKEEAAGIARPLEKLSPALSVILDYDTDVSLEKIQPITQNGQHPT
# Excerpt: This assay was used to determine the ability of a test compound to agonize (including partially agonize) D1. A Mab anti-cAMP labeled Cryptate visualizes the tracer. […] The signal, therefore, is inversely proportional to the concentration of cAMP in the sample.
# The cAMP Dynamic kit was obtained from Cisbio International (Cisbio 62AM4PEJ). Multidrop Combi (Thermo Scientific) was used for assay additions. Envision (PerkinElmer) reader was used to read HTRF.
# A HEK293T/hD1#1 stable cell line was constructed internally (Pfizer Ann Arbor). […] One mL aliquots of the cells were made in Cryo-vials and frozen at −80° C. for future use in the D1 HTRF assay.
# Frozen cells were quickly thawed, re-suspended in 50 mL warm media and allowed to sit for 5 min prior to centrifugation (1000 rpm) at room temperature. Media was removed and cell pellet was re-suspended in PBS/0.5 μM IBMX generating 2e5 cells/mL. […] Cells and compounds were incubated at room temperature for 30 min. Working solutions of cAMP-D2 and anti-cAMP-cryptate were prepared according to Cisbio instructions. Using Multidrop, 5 μL cAMP-D2 working solution was added to the assay plate containing the test compound and cells. Using Multidrop, 5 μL anti-cAMP-cryptate working solutions was added to assay plate containing test compound, cells and cAMP-D2. Assay plate was incubated for 1 hour at room temperature. Assay plate was read on Envision plate reader using Cisbio recommended settings. A cAMP standard curve was generated using cAMP stock solution provided in the Cisbio kit.
# Data analysis was done using computer software. Percent effects were calculated from the compound controls. Ratio EC50 was determined using the raw ratio data from the Envision reader. The cAMP standard curve was used in an analysis program to determine cAMP concentrations from raw ratio data. cAMP EC50 was determined using the calculated cAMP data.
# D1 [2] = biological target: T1, D1; assay: Human D1 receptor binding assay ([3H]-SCH23390 competition); conditions: Human D1 Receptor Binding, Ki (nM), Geometric mean of 2-4 determinations, a: >=5 determinations, d: single determination
SMILES,EC50 (D1 [1]),Ki (D1 [2]) [nM]
"Cc1cc(Oc2nccc3occc23)ccc1-c1c(C)cnnc1C (single isomer, unassigned) [Example 14, H-4-[4-(3,5-Dimethylpyridazin-4-yl)-3-methylphenoxy]furo[3,2-c]pyridine]",1040 nM,212
"Cc1cc(Oc2nccc3occc23)ccc1-c1c(C)nc(N)c2nccn12 [Example 112, 5-[4-(furo[3,2-c]pyridin-4-yloxy)-2-methylphenyl]-6-methylimidazo[1,2-a]pyrazin-8-amine]",156 nM,13.8
"Cn1cncc1CNc1cc(Oc2nccc3occc23)ccc1-c1cccc2nccn12 [Example 48, 5-(furo[3,2-c]pyridin-4-yloxy)-2-(imidazo[1,2-a]pyridin-5-yl)-N-[(1-methyl-1H-imidazol-5-yl)methyl]aniline, trifluoroacetate salt]",2070 nM,68.8
"Cc1cc(Oc2nccc3occc23)ccc1-c1c(C)ncnc1N(C)C [Example 87, 5-[4-(furo[3,2-c]pyridin-4-yloxy)-2-methylphenyl]-N,N,6-trimethylpyrimidin-4-amine]",600 nM and 482 nM,22.5
"COc1cc(Oc2nccc3occc23)ccc1-c1c(OC)ccc2cnccc12 [Example 94, 5-[4-(furo[3,2-c]pyridin-4-yloxy)-2-methoxyphenyl]-6-methoxyisoquinoline, formate salt]",837 nM,7.08
"Cc1nccnc1-c1ccc(Oc2nccc3occc23)cc1OCCCN(C)C [Example 61, 3-[5-(furo[3,2-c]pyridin-4-yloxy)-2-(3-methylpyrazin-2-yl)phenoxy]-N,N-dimethylpropan-1-amine, formate salt]",1110 nM and 811 nM,228
"Cc1cc(Oc2nccc3occc23)cc(C)c1-c1c(C)ncnc1C [Example 103, 4-[4-(4,6-dimethylpyrimidin-5-yl)-3,5-dimethylphenoxy]furo[3,2-c]pyridine]",392 nM and 870 nM,23.9
"Cn1nccc1-c1ccc(Oc2nccc3occc23)cc1C(F)(F)F [Example 204, 4-[4-(1-methyl-1H-pyrazol-5-yl)-3-(trifluoromethyl)phenoxy]furo[3,2-c]pyridine]",1170 nM and 627 nM,130
"Cc1cc(Oc2nccc3occc23)ccc1-c1c(C)nc2cnccn12 [Example 85, 3-[4-(furo[3,2-c]pyridin-4-yloxy)-2-methylphenyl]-2-methylimidazo[1,2-a]pyrazine]",1120 nM and 4880 nM,75.3
"Cc1cc(Oc2nccc3occc23)ccc1-c1c(C)ncc2nc(C(F)(F)F)cn12 [Example 80, 5-[4-(furo[3,2-c]pyridin-4-yloxy)-2-methylphenyl]-6-methyl-2-(trifluoromethyl)imidazo[1,2-a]pyrazine]",1200 nM and 987 nM,6.13
"CCc1cc(Oc2nccc3occc23)ccc1-c1nccnc1C [Example 62, 4-[3-ethyl-4-(3-methylpyrazin-2-yl)phenoxy]furo[3,2-c]pyridine]",,130
"Cn1nccc1-c1ccc(Oc2nccc3sccc23)cc1 [Example 7, 4-[4-(1-Methyl-1H-pyrazol-5-yl)phenoxy]thieno[3,2-c]pyridine]",,788
"Cc1cc(Oc2nccc3occc23)ccc1-c1c(C)nnc2nccn12 [Example 123, 4-[4-(furo[3,2-c]pyridin-4-yloxy)-2-methylphenyl]-3-methylimidazo[2,1-c][1,2,4]triazine]",878 nM,
"Cc1ncccc1-c1ccc(Oc2nccc3occc23)cc1OCC(C)N(C)C (stereo not shown) [Example 74, 1-[5-(furo[3,2-c]pyridin-4-yloxy)-2-(2-methylpyridin-3-yl)phenoxy]-N,N-dimethylpropan-2-amine, formate salt]",832 nM,
"Cc1nccnc1-c1ccc(Oc2nccc3occc23)cc1OCc1nc(C2CC2)no1 [Example 67, 4-{3-[(3-cyclopropyl-1,2,4-oxadiazol-5-yl)methoxy]-4-(3-methylpyrazin-2-yl)phenoxy}furo[3,2-c]pyridine]",809 nM,
